Measured values from patent US20250163076A1, “SYNTHESIS OF BRUTON'S TYROSINE KINASE INHIBITORS” (JANSSEN PHARMACEUTICA NV, priority 2022, published 2025).
In brackets after ≈: the same amount, converted by molar mass. Like-named read-outs stand apart in the source and are kept apart here. Marks after values point to notes of the source that are not given here. Values belong to the compound of their own block, whether it stands above or below them.

How the values were obtained:
BTK = BTK (Homo sapiens, UniProt Q06187); assay: BTK covalent inhibition kinetics (KI, kinact, kinact/KI); assay type: biochemical; conditions: for Ki / kinact: average of 2 independent determinations (± SD); for kinact/KI: read-out: kinact/KI
Protocol: The development of the structure-activity relationship was conducted by characterizing the non-covalent affinity of each inhibitor for BTK (KI) and the first order rate constant for irreversible covalent bond formation (kinact). The second order rate constant kinact/KI ratio is used to assess the covalent inhibitor potency because it is independent of incubation time and substrate concentrations (Copeland, R. A. Evaluation of Enzyme Inhibitors in Drug Discovery: a Guide for Medicinal Chemists and Pharmacologists; 2nd ed.; Wiley: Hoboken, N.J., 2013).

[1] = Aqueous solubility at pH 2 and pH 7; assay type: physicochemical
[2] = Human liver microsomes T1/2; assay type: in vitro ADME; conditions: for half-life: human, liver microsomes, Table 4
[3] = Solubility of P and M forms in solvent systems and their water mixtures; assay type: physicochemical
Text: Moreover, this solubility difference can be tuned by changing the ratio between 1-propanol/water. Therefore, M form can be efficiently converted even starting from a 1:1 d.r. mixture.

[4] = aqueous medium, aqueous buffer, Table 4, pH 7, read-out: Solubility pH 7
[5] = aqueous medium, simulated gastric fluid, Table 4, pH 2, read-out: Solubility pH 2

Sequence of BTK (Q06187 whole entry): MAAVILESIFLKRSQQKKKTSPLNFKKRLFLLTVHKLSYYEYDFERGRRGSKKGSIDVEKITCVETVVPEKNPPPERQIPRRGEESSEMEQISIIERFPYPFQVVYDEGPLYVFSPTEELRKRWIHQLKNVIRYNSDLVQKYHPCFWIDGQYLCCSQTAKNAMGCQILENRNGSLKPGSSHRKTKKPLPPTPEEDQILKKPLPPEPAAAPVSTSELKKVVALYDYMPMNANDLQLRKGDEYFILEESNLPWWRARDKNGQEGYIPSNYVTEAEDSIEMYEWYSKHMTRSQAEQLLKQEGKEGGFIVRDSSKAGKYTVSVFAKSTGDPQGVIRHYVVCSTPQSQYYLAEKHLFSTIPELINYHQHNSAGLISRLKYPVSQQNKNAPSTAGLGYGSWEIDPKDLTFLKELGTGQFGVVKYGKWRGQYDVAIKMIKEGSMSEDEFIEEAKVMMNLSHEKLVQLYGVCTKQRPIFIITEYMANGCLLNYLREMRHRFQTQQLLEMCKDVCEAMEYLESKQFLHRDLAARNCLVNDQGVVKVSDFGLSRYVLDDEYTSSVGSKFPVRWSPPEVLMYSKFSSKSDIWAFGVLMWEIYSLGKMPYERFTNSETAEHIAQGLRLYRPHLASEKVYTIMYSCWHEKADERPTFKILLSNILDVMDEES

Ki (BTK; Table 4): 354 ± 29 nM
kinact (BTK; Table 4): 0.000278 s⁻¹
kinact/KI (BTK; Table 4): 786 ± 63 M⁻¹ s⁻¹
Solubility [1, 4]: 4 µM (≈ 2.16 µg/mL)
Solubility [1, 5]: 18 µM (≈ 9.73 µg/mL)
half-life [2]: 6 min
SMILES: C=CC(=O)N1CCCC(NC(=O)c2sc3nccc4c3c2NC(=O)N4c2ccc(Oc3ccccc3)nc2)C1 (centres unmarked) [D]

SMILES: C=CC(=O)N[C@H]1CCC[C@H]1NC(=O)c1sc2nccc3c2c1NC(=O)N3c1cnc(CC(C)C)cc1C (single isomer, unassigned) [P form]
Solubility ([3]; 1-Butanol/water (~6/94 w/w %), 10° C.): 0.01 mg/mL (≈ 0.0193 mM)
Solubility ([3]; 1-Butanol/water (~6/94 w/w %), 25° C.): 0.01 mg/mL (≈ 0.0193 mM)
Solubility ([3]; 1-Butanol/water (~6/94 w/w %), 50° C.): immiscible
Solubility ([3]; 1-Butanol/water (~80/20 w/w %), 10° C.): 18.2 mg/mL (≈ 35.1 mM)
Solubility ([3]; 1-Butanol/water (~80/20 w/w %), 25° C.): 20.7 mg/mL (≈ 39.9 mM)
Solubility ([3]; 1-Butanol/water (~80/20 w/w %), 50° C.): immiscible
Solubility ([3]; 1-Butanol, 10° C.): 137.3 mg/mL (≈ 265 mM)
Solubility ([3]; 1-Butanol, 25° C.): 132.8 mg/mL (≈ 256 mM)
Solubility ([3]; 1-Butanol, 50° C.): 197.6 mg/mL (≈ 381 mM)
Solubility ([3]; 1-Propanol/water (20/80 w/w %), 25° C.): 0.4 mg/mL (≈ 0.771 mM)
Solubility ([3]; 1-Propanol/water (20/80 w/w %), 50° C.): 0.5 mg/mL (≈ 0.964 mM)
Solubility ([3]; 1-Propanol/water (33/67 w/w %), 10 °C, aqueous with cosolvent or surfactant or cyclodextrin, thermodynamic from solid, 1-Propanol/water (33/67 w/w %), 10° C., read-out: Solubility): 2.2 mg/mL (≈ 4.24 mM)
Solubility ([3]; 1-Propanol/water (33/67 w/w %), 25° C.): 1.9 mg/mL (≈ 3.66 mM)
Solubility ([3]; 1-Propanol/water (33/67 w/w %), 50° C.): 1.8 mg/mL (≈ 3.47 mM)
Solubility ([3]; 1-Propanol/water (50/50 w/w %), 25° C.): 8.5 mg/mL (≈ 16.4 mM)
Solubility ([3]; 1-Propanol/water (50/50 w/w %), 50° C.): 15.6* mg/mL
Solubility ([3]; 1-Propanol/water (67/33 w/w %), 10° C.): 18.0 mg/mL (≈ 34.7 mM)
Solubility ([3]; 1-Propanol/water (67/33 w/w %), 25° C.): 20.8 mg/mL (≈ 40.1 mM)
Solubility ([3]; 1-Propanol/water (67/33 w/w %), 50° C.): 20.3* mg/mL
Solubility ([3]; 1-Propanol/water (80/20 w/w %), 10° C.): 24.8 mg/mL (≈ 47.8 mM)
Solubility ([3]; 1-Propanol/water (80/20 w/w %), 25° C.): 26.3 mg/mL (≈ 50.7 mM)
Solubility ([3]; 1-Propanol/water (80/20 w/w %), 50° C.): 32.3* mg/mL
Solubility ([3]; 1-Propanol, 10° C.): 206.8 mg/mL (≈ 399 mM)
Solubility ([3]; 1-propanol, 25 °C, organic solvent or mixture, 1-Propanol, 25° C., read-out: Solubility): 197 mg/mL (≈ 380 mM)
Solubility ([3]; 1-propanol, 50 °C, organic solvent or mixture, 1-Propanol, 50° C., read-out: Solubility): 255 mg/mL (≈ 492 mM)
Solubility ([3]; 1-propanol/water (50/50 w/w %), 10 °C, aqueous with cosolvent or surfactant or cyclodextrin, thermodynamic from solid, 1-Propanol/water (50/50 w/w %), 10° C., read-out: Solubility): 8.1 mg/mL (≈ 15.6 mM)
Solubility ([3]; 2-butanol/water (~17/83 w/w %), 50 °C, aqueous with cosolvent or surfactant or cyclodextrin, 2-butanol/water (~17/83 w/w %), 50° C., read-out: Solubility): 0.2 mg/mL (≈ 0.386 mM)
Solubility ([3]; 2-butanol/water (~17/83 w/w %), 10° C.): 0.5 mg/mL (≈ 0.964 mM)
Solubility ([3]; 2-butanol/water (~17/83 w/w %), 25° C.): 0.3 mg/mL (≈ 0.578 mM)
Solubility ([3]; Isobutanol, 10° C.): 105.8 mg/mL (≈ 204 mM)
Solubility ([3]; Isobutanol, 25° C.): 102.2 mg/mL (≈ 197 mM)
Solubility ([3]; Isobutanol, 50° C.): 134.3 mg/mL (≈ 259 mM)
Solubility ([3]; Isopropanol/water (~16/84 w/w %), 10° C.): 0.1 mg/mL (≈ 0.193 mM)
Solubility ([3]; Isopropanol/water (~16/84 w/w %), 25° C.): 0.2 mg/mL (≈ 0.386 mM)
Solubility ([3]; Isopropanol/water (~16/84 w/w %), 50° C.): 0.3 mg/mL (≈ 0.578 mM)
Solubility ([3]; Isopropanol/water (~28/72 w/w %), 10° C.): 0.4 mg/mL (≈ 0.771 mM)
Solubility ([3]; Isopropanol/water (~28/72 w/w %), 25° C.): 0.7 mg/mL (≈ 1.35 mM)
Solubility ([3]; Isopropanol/water (~28/72 w/w %), 50° C.): 1.1 mg/mL (≈ 2.12 mM)
Solubility ([3]; Isopropanol/water (~44/56 w/w %), 10° C.): 2.0 mg/mL (≈ 3.86 mM)
Solubility ([3]; Isopropanol/water (~44/56 w/w %), 25° C.): 3.0 mg/mL (≈ 5.78 mM)
Solubility ([3]; Isopropanol/water (~44/56 w/w %), 50° C.): 2.0 mg/mL (≈ 3.86 mM)
Solubility ([3]; Isopropanol/water (~61/39 w/w %), 10° C.): 4.0 mg/mL (≈ 7.71 mM)
Solubility ([3]; Isopropanol/water (~61/39 w/w %), 25° C.): 6.0 mg/mL (≈ 11.6 mM)
Solubility ([3]; Isopropanol/water (~61/39 w/w %), 50° C.): 4.0 mg/mL (≈ 7.71 mM)
Solubility ([3]; Propylene carbonate/water (93/7 w/w %), 10° C.): 10.9 mg/mL (≈ 21 mM)
Solubility ([3]; Propylene carbonate/water (93/7 w/w %), 25° C.): 9.0 mg/mL (≈ 17.4 mM)
Solubility ([3]; Propylene carbonate/water (93/7 w/w %), 50° C.): 8.6 mg/mL (≈ 16.6 mM)
Solubility ([3]; Propylene carbonate, 10° C.): 55.8 mg/mL (≈ 108 mM)
Solubility ([3]; isobutanol/water (~8/92 w/w %), 10 °C, aqueous with cosolvent or surfactant or cyclodextrin, Isobutanol/water (~8/92 w/w %), 10° C., read-out: Solubility): 0.1 mg/mL (≈ 0.193 mM)
Solubility ([3]; isobutanol/water (~8/92 w/w %), 25 °C, aqueous with cosolvent or surfactant or cyclodextrin, Isobutanol/water (~8/92 w/w %), 25° C., read-out: Solubility): 0.1 mg/mL (≈ 0.193 mM)
Solubility ([3]; isobutanol/water (~8/92 w/w %), 50 °C, aqueous with cosolvent or surfactant or cyclodextrin, Isobutanol/water (~8/92 w/w %), 50° C., read-out: Solubility): 0.1 mg/mL (≈ 0.193 mM)
Solubility ([3]; propylene carbonate, 25 °C, organic solvent or mixture, Propylene carbonate, 25° C., read-out: Solubility): 50.1 mg/mL (≈ 96.6 mM)
Solubility ([3]; propylene carbonate, 50 °C, organic solvent or mixture, Propylene carbonate, 50° C., read-out: Solubility): 97.3 mg/mL (≈ 188 mM)

Ki (BTK; Table 4): 64 ± 14 nM
kinact (BTK; Table 4): 0.000316 s⁻¹
kinact/KI (BTK; Table 4): 5000 ± 560 M⁻¹ s⁻¹
Solubility [1, 4]: 4 µM (≈ 2.13 µg/mL)
Solubility [1, 5]: 10 µM (≈ 5.33 µg/mL)
half-life [2]: < 4 min
SMILES: C=CC(=O)N1CCCC(NC(=O)c2sc3nccc4c3c2NC(=O)N4c2cnc(OC3CCC3)cc2C)C1 (centres unmarked) [H]

Ki (BTK; Table 4): 456 ± 7 nM
kinact (BTK; Table 4): 0.000303 s⁻¹
kinact/KI (BTK; Table 4): 664 ± 44 M⁻¹ s⁻¹
Solubility [1, 4]: 9 µM (≈ 4.87 µg/mL)
Solubility [1, 5]: 10 µM (≈ 5.41 µg/mL)
half-life [2]: < 4 min
SMILES: C=CC(=O)N1CCCC(NC(=O)c2sc3nccc4c3c2NC(=O)N4c2ccc(Oc3ccccc3)cn2)C1 (centres unmarked) [C]

Ki (BTK; Table 5): 2430 nM
kinact (BTK; Table 5): 0.000317 s⁻¹
kinact/KI (BTK; Table 5): 131 ± 2 M⁻¹ s⁻¹
Solubility ([1]; Table 5, pH 7, read-out: Solubility pH 7): 220 µM (≈ 105 µg/mL)
Solubility ([1]; aqueous medium, simulated gastric fluid, Table 5, pH 2, read-out: Solubility pH 2): > 400 µM
Human liver microsomes T1/2 ([2]; Table 5): 27 min
SMILES: C=CC(=O)NCCNC(=O)c1sc2nccc3c2c1NC(=O)N3c1cnc(CC(C)C)cc1C [L]
